Measurements taken from patent US10913727B2, “Modulators of the integrated stress pathway” (Calico Life Sciences LLC, priority 2016, dated 2021).
pEC50: −log10 of the molar value.

Test system: HEK293T cells carrying the ATF4 luciferase reporter
Assay: ATF4-Luc assay, in vitro model of Vanishing Cell White Matter Disease (VWMD)
Format: cell-based
Settings: Homo sapiens, HEK-293T, 1 μg/mL tunicamycin, 7 hours, One Glo luminescence
Outline: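 Reporter cells were stably generated by retroviral transduction and puromycin selection, then seeded at 30,000 cells/well. Next day, cells received 1 μg/mL tunicamycin with 200 nM test compound for 7 h, and luciferase luminescence was read with a one-step reagent. Values reported as EC50.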

Compound	pEC50
Cc1ccc(S(=O)(=O)NC23CC(NC(=O)COc4ccc(Cl)c(F)c4)(C2)C3)cc1 [Compound 662, 2-(4-chloro-3-fluorophenoxy)-N-{3-[(4-methylbenzene-1-sulfonyl)amino]bicyclo[1.1.1]pentan-1-yl}acetamide]	< 5.70
COc1cc(OC)nc(C(=O)NC23CC(NC(=O)COc4ccc(Cl)c(F)c4)(C2)C3)n1 [Compound 116, N-{3-[2-(4-chloro-3-fluorophenoxy)acetamido]bicyclo[1.1.1]pentan-1-yl}-4,6-dimethoxypyrimidine-2-carboxamide]	< 5.70
O=C(COc1ccc(Cl)c(F)c1)NC12CC(NC(=O)c3cn4ccsc4n3)(C1)C2 [Compound 799, N-{3-[2-(4-chloro-3-fluorophenoxy)acetamido]bicyclo[1.1.1]pentan-1-yl}imidazo[2,1-b][1,3]thiazole-6-carboxamide]	< 5.70
O=C(COc1ccc(Cl)c(F)c1)NC12CCC(NC(=O)c3ccccn3)(CC1)C[C@@H]2O [Compound 727, N-{(3S)-4-[2-(4-chloro-3-fluorophenoxy)acetamido]-3-hydroxybicyclo[2.2.2]octan-1-yl}pyridine-2-carboxamide]	> 7.30
CCn1cncc1C(=O)NC12CC(NC(=O)COc3ccc(Cl)c(F)c3)(C1)C2 [Compound 775, N-{3-[2-(4-chloro-3-fluorophenoxy)acetamido]bicyclo[1.1.1]pentan-1-yl}-1-ethyl-1H-imidazole-5-carboxamide]	< 5.70
O=C(COc1ccc(Cl)c(F)c1)NC12CC(NC(=O)c3ccc4snnc4c3)(C1)C2 [Compound 800, N-{3-[2-(4-chloro-3-fluorophenoxy)acetamido]bicyclo[1.1.1]pentan-1-yl}-1,2,3-benzothiadiazole-5-carboxamide]	< 5.70
O=C(COc1ccc(Cl)c(F)c1)NC12CCC(NC(=O)c3ccc4cc(F)ccc4n3)(CC1)[C@@H](O)C2 [Compound 930, N-{(2S)-4-[2-(4-chloro-3-fluorophenoxy)acetamido]-2-hydroxybicyclo[2.2.2]octan-1-yl}-6-fluoroquinoline-2-carboxamide]	> 7.30
COc1cccc(C(=O)NC23CC(NC(=O)COc4ccc(Cl)c(F)c4)(C2)C3)c1F [Compound 519, N-{3-[2-(4-chloro-3-fluorophenoxy)acetamido]bicyclo[1.1.1]pentan-1-yl}-2-fluoro-3-methoxybenzamide]	6.60 to 7.30
O=C(COc1ccc(Cl)c(Cl)c1)NC12CC(NC(=O)c3ccc(CO)nc3)(C1)C2 [Compound 719, N-{3-[2-(3,4-dichlorophenoxy)acetamido]bicyclo[1.1.1]pentan-1-yl}-6-(hydroxymethyl)pyridine-3-carboxamide]	5.70 to 6.00
O=C(COc1ccc2c(c1)OC(F)(F)O2)NC12CC(NC(=O)c3ccc(OC(F)(F)F)cn3)(C1)C2 [Compound 378, N-(3-{2-[(2,2-difluoro-2H-1,3-benzodioxol-5-yl)oxy]acetamido}bicyclo[1.1.1]pentan-1-yl)-5-(trifluoromethoxy)pyridine-2-carboxamide]	> 7.30
O=C(COc1ccc(Cl)c(F)c1)NC12CC(NC(=O)c3ccc(N4CCCC4)cn3)(C1)C2 [Compound 123, N-{3-[2-(4-chloro-3-fluorophenoxy)acetamido]bicyclo[1.1.1]pentan-1-yl}-5-(pyrrolidin-1-yl)pyridine-2-carboxamide]	6.00 to 6.60
Cc1ccc(C(=O)NC23CCC(NC(=O)COc4ccc(Cl)c(F)c4)(CC2)[C@@H](O)C3)nc1 [Compound 729, N-{(3S)-4-[2-(4-chloro-3-fluorophenoxy)acetamido]-3-hydroxybicyclo[2.2.2]octan-1-yl}-5-methylpyridine-2-carboxamide]	> 7.30
CCc1cc(C(=O)NC23CC(NC(=O)COc4ccc(Cl)c(F)c4)(C2)C3)on1 [Compound 323, N-{3-[2-(4-chloro-3-fluorophenoxy)acetamido]bicyclo[1.1.1]pentan-1-yl}-3-ethyl-1,2-oxazole-5-carboxamide]	6.00 to 6.60
Cn1cc(C(=O)NC23CCC(NC(=O)COc4ccc(Cl)c(F)c4)(CC2)C(O)C3)cn1 (stereo not drawn) [Compound 626, N-{4-[2-(4-chloro-3-fluorophenoxy)acetamido]-3-hydroxybicyclo[2.2.2]octan-1-yl}-1-methyl-1H-pyrazole-4-carboxamide]	6.60 to 7.30
O=C(COc1ccc(Cl)c(F)c1)NC12CC(NC(=O)c3coc4c3C(=O)CCC4)(C1)C2 [Compound 315, N-{3-[2-(4-chloro-3-fluorophenoxy)acetamido]bicyclo[1.1.1]pentan-1-yl}-4-oxo-4,5,6,7-tetrahydro-1-benzofuran-3-carboxamide]	6.00 to 6.60
Cc1cc(C(=O)NC23CCC(NC(=O)COc4ccc(Cl)c(F)c4)(CC2)C(O)C3)sn1 (stereo not drawn) [Compound 578, N-{4-[2-(4-chloro-3-fluorophenoxy)acetamido]-3-hydroxybicyclo[2.2.2]octan-1-yl}-3-methyl-1,2-thiazole-5-carboxamide]	> 7.30
O=C(COc1ccc(Cl)c(F)c1)NC12CC(NC(=O)c3ccccc3Cn3cccn3)(C1)C2 [Compound 890, N-{3-[2-(4-chloro-3-fluorophenoxy)acetamido]bicyclo[1.1.1]pentan-1-yl}-2-[(1H-pyrazol-1-yl)methyl]benzamide]	< 5.70

Compound	pEC50
Cc1cc(C(=O)NC23CC(NC(=O)COc4ccc(Cl)c(F)c4)(C2)C3)nn1C [Compound 848, N-{3-[2-(4-chloro-3-fluorophenoxy)acetamido]bicyclo[1.1.1]pentan-1-yl}-1,5-dimethyl-1H-pyrazole-3-carboxamide]	> 7.30
O=C(COc1ccc(Cl)c(F)c1)NC12CC(NC(=O)c3cnc(C4CC4)nc3)(C1)C2 [Compound 888, N-{3-[2-(4-chloro-3-fluorophenoxy)acetamido]bicyclo[1.1.1]pentan-1-yl}-2-cyclopropylpyrimidine-5-carboxamide]	6.60 to 7.30
Cc1cnn2ccc(NC34CC(NC(=O)COc5ccc(Cl)c(F)c5)(C3)C4)nc12 [Compound 610, 2-(4-chloro-3-fluorophenoxy)-N-{3-[(3-methylpyrazolo[1,5-a]pyrimidin-5-yl)amino]bicyclo[1.1.1]pentan-1-yl}acetamide]	5.70 to 6.00
O=C(COc1ccc(Cl)c(F)c1)NC12CC(Nc3cnc(C(F)(F)F)cn3)(C1)C2 [Compound 102, 2-(4-chloro-3-fluorophenoxy)-N-(3-{[5-(trifluoromethyl)pyrazin-2-yl]amino}bicyclo[1.1.1]pentan-1-yl)acetamide]	5.70 to 6.00
Cc1cc(Cl)cnc1C(=O)NC12CC(NC(=O)COc3ccc(Cl)c(F)c3)(C1)C2 [Compound 777, 5-chloro-N-{3-[2-(4-chloro-3-fluorophenoxy)acetamido]bicyclo[1.1.1]pentan-1-yl}-3-methylpyridine-2-carboxamide]	< 5.70
CCc1nc(C)c(C(=O)NC23CC(NC(=O)COc4ccc(Cl)c(F)c4)(C2)C3)s1 [Compound 294, N-{3-[2-(4-chloro-3-fluorophenoxy)acetamido]bicyclo[1.1.1]pentan-1-yl}-2-ethyl-4-methyl-1,3-thiazole-5-carboxamide]	6.60 to 7.30
O=C(COc1ccc(Cl)c(F)c1)NC12CC(NC(=O)c3cc(N4CC(O)C4)ccn3)(C1)C2 [Compound 179, N-{3-[2-(4-chloro-3-fluorophenoxy)acetamido]bicyclo[1.1.1]pentan-1-yl}-4-(3-hydroxyazetidin-1-yl)pyridine-2-carboxamide]	6.00 to 6.60
Cc1ccc(C(=O)NC23CC(NC(=O)COc4ccc(Cl)c(Cl)c4)(C2)C3)c(C)n1 [Compound 687, N-{3-[2-(3,4-dichlorophenoxy)acetamido]bicyclo[1.1.1]pentan-1-yl}-2,6-dimethylpyridine-3-carboxamide]	6.00 to 6.60
CC(C)(C)c1cc(C(=O)NC23CCC(NC(=O)COc4ccc(Cl)c(F)c4)(CC2)[C@@H](O)C3)on1 [Compound 581, 3-tert-butyl-N-{(3S)-4-[2-(4-chloro-3-fluorophenoxy)acetamido]-3-hydroxybicyclo[2.2.2]octan-1-yl}-1,2-oxazole-5-carboxamide]	> 7.30
O=C(COc1ccc(Cl)c(F)c1)NC12CC(NC(=O)c3cnco3)(C1)C2 [Compound 573, N-{3-[2-(4-chloro-3-fluorophenoxy)acetamido]bicyclo[1.1.1]pentan-1-yl}-1,3-oxazole-5-carboxamide]	5.70 to 6.00
Cc1nc(C(=O)NC23CCC(NC(=O)COc4ccc(Cl)c(Cl)c4)(CC2)[C@@H](O)C3)n[nH]1 [Compound 702, N-{(3S)-4-[2-(3,4-dichlorophenoxy)acetamido]-3-hydroxybicyclo[2.2.2]octan-1-yl}-5-methyl-1H-1,2,4-triazole-3-carboxamide]	> 7.30
Cc1cc(C(=O)NC23CC(NC(=O)COc4ccc(Cl)c(F)c4)(C2)C3)oc1C [Compound 612, N-{3-[2-(4-chloro-3-fluorophenoxy)acetamido]bicyclo[1.1.1]pentan-1-yl}-4,5-dimethylfuran-2-carboxamide]	6.60 to 7.30
CCc1ccnc(C(=O)NC23CC(NC(=O)COc4ccc(Cl)c(Cl)c4)(C2)C3)c1 [Compound 696, N-{3-[2-(3,4-dichlorophenoxy)acetamido]bicyclo[1.1.1]pentan-1-yl}-4-ethylpyridine-2-carboxamide]	6.60 to 7.30
Cc1cc2c(C(=O)NC34CC(NC(=O)COc5ccc(Cl)c(F)c5)(C3)C4)nccn2n1 [Compound 561, N-{3-[2-(4-chloro-3-fluorophenoxy)acetamido]bicyclo[1.1.1]pentan-1-yl}-2-methylpyrazolo[1,5-a]pyrazine-4-carboxamide]	< 5.70
O=C(COc1ccc(Cl)c(Cl)c1)NC12CC(NC(=O)c3ccc(OC(F)(F)F)cn3)(C1)C2 [Compound 144, N-{3-[2-(3,4-dichlorophenoxy)acetamido]bicyclo[1.1.1]pentan-1-yl}-5-(trifluoromethoxy)pyridine-2-carboxamide]	> 7.30
COc1cc(C(=O)NC23CC(NC(=O)COc4ccc(Cl)c(F)c4)(C2)C3)c(OC)nn1 [Compound 788, N-{3-[2-(4-chloro-3-fluorophenoxy)acetamido]bicyclo[1.1.1]pentan-1-yl}-3,6-dimethoxypyridazine-4-carboxamide]	< 5.70
